The text below walks through data of patent publication US20250129021A1, “SMALL MOLECULE PROTEIN SYNTHESIS MODULATORS” (Interdict Bio, Inc., priority 2023, published 2025).

What all share (assay type): biochemical
The subject of assay [1] is MYC. In words: In vitro transcription-translation (IVTT) assay, MYC reporter. Particulars: IVTT assay, HeLa S3 lysate, MYC reporter, normalized sfGFP/mCherry ratio; half-log dilutions 30 μM-0.1 μM, 2 hrs at 30° C. An outline of the steps:
(§1)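 Reporter: mCherry, P2A, then 3×FLAG-target peptide-sfGFP fusion, IRES-initiated; HeLa S3 lysate IVTT; cpd dilutions 30 μM−0.1 μM half-log in 100% DMSO (dilution-plate conc); DNA added last; 2 h, 30° C; PBS quench.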

Assay [2] deals with CCND1. Briefly: In vitro transcription-translation (IVTT) assay, CCND1 reporter. The following applies: IVTT assay, HeLa S3 lysate, sfGFP/mCherry ratio. An outline of the steps: as §1
Assay [3] concerns MCL-1. Briefly: In vitro transcription-translation (IVTT) assay, MCL-1 reporter. The following applies: IVTT assay, HeLa S3 lysate, sfGFP/mCherry ratio; read-out: MCL1 IC50. An outline of the steps:
as §1

Assay [4] deals with CCNTB1. In words: In vitro transcription-translation (IVTT) assay, CCNTB1 reporter. The following applies: HeLa S3 lysate, sfGFP/mCherry ratio. As for the experimental part: In vitro transcription-translation assay setup: Each assay includes a master mix containing lysate and shared components, a 96-well plate containing compound titrations for testing, a 96-well DNA plate with reporter constructs to be tested, 96-well skirted PCR plates, and 96-well flat-bottom, black, fluorescent assay plates. Reaction materials setup: (A) Master mix—15 mL conical tube (3 mL of HeLa S3 Lysate described above; 0.6 mL of ThermoFisher Accessory Proteins (#88882); 1.2 ml of ThermoFisher Reaction Mix (#88882); 0.54 mL of nuclease-free Water); (B) 96-Well Master Mix+Compound Plate (Half-log dilutions (30 μM−0.1 μM) of 4 compounds of interest are prepared in 100% DMSO); 96-Well DNA Plate (Five DNA constructs are plated into single columns within the plate. Row 1 of the column contains nuclease free H2O, all other wells contain 110 ng/μL plasmid DNA). Reactions are started by mixing 155 μL of master mix and 3.5 μL of compound serial dilutions, then 9.1 μL of master mix+compound mixture is aliquoted across 5 96-well plates. Reactions begin with final addition of 2 μL of DNA for a 11.1 μL reaction volume in each well. The entire plate is sealed, and incubated for 2 hrs at 30° C. After 2 hrs, quench the assay using 45 μL of PBS, and transfer 50 μL to a flat-bottom black microplate Quantify the sfGFP and mCherry signals from each well on each plate, taking 3 reads of each plate, and perform data analysis below.
In vitro transcription-translation assay data analysis: Each plate is read three times in channels for both sfGFP and mCherry signals. The average signal across these 3 reads is then calculated for further analysis. Control wells containing no DNA reporter are subtracted from reporter wells in the same column to remove auto-fluorescence of the lysate. Then, the ratio of sfGFP/mCherry is calculated per well, and these ratios are averaged across the triplicate experiments on the same plate. Finally, the ratio of each titration concentration is normalized to the no drug control to create the normalized stalling metric. The error on this measurement is determined by propagating error through the averaging and normalization steps. Values are plotted and fit for IC50 determination for each test sequence and titration of compound.

As to `O=C(NCC[C@@H]1CCCN1)O[C@@H]1[C@@H](O)CN[C@@H]1Cc1ccc(-c2cncs2)cc1` [V192113, (2R,3S,4S)-4-hydroxy-2-{[4-(1,3-thiazol-5-yl)phenyl]methyl}pyrrolidin-3-yl N-{2-[(2S)-pyrrolidin-2-yl]ethyl}carbamate], the IC50 in assay [1], in assay [2], in assay [3] and in assay [4] was less than 10 µM each time.
Consider `O=C(NCc1cccc(F)c1)O[C@@H]1[C@@H](O)CN[C@@H]1Cc1cccnc1` [V190519, (2R,3S,4S)-4-hydroxy-2-(pyridin-3-ylmethyl)pyrrolidin-3-yl N-[(3-fluorophenyl)methyl]carbamate], for which the half-maximal inhibitory concentration (IC50) (commonly the concentration at which inhibition is half-maximal) in assay [1] was 20 to 30 µM; in assay [2], more than 30 µM; in assay [3], more than 30 µM; in assay [4], 20 to 30 µM.
`O=C(NCC1CC1)O[C@@H]1[C@@H](O)CN[C@@H]1Cc1ccc(-c2cnco2)cc1` [V192262, (2R,3S,4S)-4-hydroxy-2-{[4-(1,3-oxazol-5-yl)phenyl]methyl}pyrrolidin-3-yl N-(cyclopropylmethyl)carbamate]: the IC50 in assay [1], in assay [2], in assay [3] and in assay [4] was less than 10 µM each time.
Consider `O=C(NCc1ccc2c(c1)CCNC2)O[C@@H]1[C@@H](O)CN[C@@H]1Cc1ccc(-c2cncs2)cc1` [V192109, (2R,3S,4S)-4-hydroxy-2-(4-(thiazol-5-yl)benzyl)pyrrolidin-3-yl ((1,2,3,4-tetrahydroisoquinolin-6-yl)methyl)carbamate], for which the 50% inhibitory concentration (IC50) in assay [1], in assay [2], in assay [3] and in assay [4] was less than 10 µM throughout.
On to `COc1ccc(C[C@H]2NC[C@H](O)[C@H]2OC(=O)N[C@@H](C)c2ccccc2)cc1` [V191971, (2R,3S,4S)-4-hydroxy-2-[(4-methoxyphenyl)methyl]pyrrolidin-3-yl N-[(1S)-1-phenylethyl]carbamate], for which the concentration for half-maximal inhibition (IC50) was 10 to 20 µM in assay [1], more than 30 µM in assay [2], 20 to 30 µM in assay [3] and 10 to 20 µM in assay [4].
On to `O=C(NCc1ccc2c(c1)CCNC2)O[C@@H]1[C@@H](O)CN[C@@H]1Cc1ccc(-c2ccc(S(F)(F)(F)(F)F)cc2)cc1` [V192059, (2R,3S,4S)-4-hydroxy-2-{[4′-(pentafluoro-lambda6-sulfanyl)-[1,1′-biphenyl]-4-yl]methyl}pyrrolidin-3-yl N-(1,2,3,4-tetrahydroisoquinolin-6-ylmethyl)carbamate], for which the IC50 in assay [1], in assay [2], in assay [3] and in assay [4] was more than 30 µM in each case.
Regarding `COc1ccc(C[C@H]2NC[C@H](O)[C@H]2OC(=O)NCC[C@@H]2CCCNC2)cc1` [V191903, (2R,3S,4S)-4-hydroxy-2-[(4-methoxyphenyl)methyl]pyrrolidin-3-yl N-{2-[(3S)-piperidin-3-yl]ethyl}carbamate], the IC50 in assay [1] was less than 10 µM; in assay [2] it was 10 to 20 µM; in assay [3] it was less than 10 µM; in assay [4] it was less than 10 µM.
In the case of `COc1ccc(C[C@H]2NC[C@H](O)[C@H]2OC(=O)NCC[C@H]2CCCNC2)cc1` [V192046, (2R,3S,4S)-4-hydroxy-2-[(4-methoxyphenyl)methyl]pyrrolidin-3-yl N-{2-[(3R)-piperidin-3-yl]ethyl}carbamate], the IC50 in assay [1] is less than 10 µM; in assay [2], 10 to 20 µM; in assay [3], less than 10 µM; in assay [4] it was less than 10 µM.
For `O=C(NCc1cccc(F)c1)O[C@@H]1[C@@H](O)CN[C@@H]1Cc1ccc(-c2cnoc2)cc1` [V190543, (2R,3S,4S)-4-hydroxy-2-{[4-(1,2-oxazol-4-yl)phenyl]methyl}pyrrolidin-3-yl N-[(3-fluorophenyl)methyl]carbamate], the half-maximal inhibitory concentration (IC50) in assay [1] was less than 10 µM; in assay [2] it was more than 30 µM; in assay [3], more than 30 µM; in assay [4], 20 to 30 µM.
With `COc1ccc(C[C@H]2NC[C@H](O)[C@H]2OC(=O)NCc2ccc(C3(N)CC3)cc2)cc1` [V192069, (2R,3S,4S)-4-hydroxy-2-[(4-methoxyphenyl)methyl]pyrrolidin-3-yl N-{[4-(1-aminocyclopropyl)phenyl]methyl}carbamate], the IC50 in assay [1], in assay [2], in assay [3] and in assay [4] was less than 10 µM in each case.
As for `O=C(NCc1cccc(F)c1)O[C@@H]1[C@@H](O)CN[C@@H]1Cc1ccc(-c2nnc(C(F)(F)F)s2)cc1` [V192102, (2R,3S,4S)-4-hydroxy-2-({4-[5-(trifluoromethyl)-1,3,4-thiadiazol-2-yl]phenyl}methyl)pyrrolidin-3-yl N-[(3-fluorophenyl)methyl]carbamate], the IC50 in assay [1] is 10 to 20 µM; in assay [2] it was more than 30 µM; in assay [3] it was more than 30 µM; in assay [4], 10 to 20 µM.
Turning to `COc1ccc(C[C@H]2NC[C@H](O)[C@H]2OC(=O)NCC[C@@]2(C)CCCN2)cc1` [V192041, (2R,3S,4S)-4-hydroxy-2-(4-methoxybenzyl)pyrrolidin-3-yl (2-((R)-2-methylpyrrolidin-2-yl)ethyl)carbamate], the concentration for half-maximal inhibition (IC50) is less than 10 µM in assay [1], 10 to 20 µM in assay [2], less than 10 µM in assay [3] and less than 10 µM in assay [4].
With `O=C(NCc1ccc2c(c1)CCNC2)O[C@@H]1[C@@H](O)CN[C@@H]1Cc1ccc(-c2ccc(C(F)(F)F)cc2)cc1` [V192058, (2R,3S,4S)-4-hydroxy-2-{[4′-(trifluoromethyl)-[1,1′-biphenyl]-4-yl]methyl}pyrrolidin-3-yl N-(1,2,3,4-tetrahydroisoquinolin-6-ylmethyl)carbamate], the IC50 in assay [1] is more than 30 µM; in assay [2], more than 30 µM; in assay [3], more than 30 µM; in assay [4], 20 to 30 µM.
For the molecule `O=C(NCCC1CCNCC1)O[C@@H]1[C@@H](O)CN[C@@H]1Cc1ccc(-c2ccc(F)c(F)c2)cc1` [V192051, (2R,3S,4S)-2-({3′,4′-difluoro-[1,1′-biphenyl]-4-yl}methyl)-4-hydroxypyrrolidin-3-yl N-[2-(piperidin-4-yl)ethyl]carbamate], the IC50 in assay [1], in assay [2], in assay [3] and in assay [4] was less than 10 µM each time.
On to `O=C(NCC[C@@H]1CCCN1)O[C@@H]1[C@@H](O)CN[C@@H]1Cc1ccc(-c2ccc(Cl)s2)cc1` [V191891, (2R,3S,4S)-2-{[4-(5-chlorothiophen-2-yl)phenyl]methyl}-4-hydroxypyrrolidin-3-yl N-{2-[(2S)-pyrrolidin-2-yl]ethyl}carbamate], for which the IC50 in assay [1] is less than 10 µM; in assay [2], 10 to 20 µM; in assay [3], less than 10 µM; in assay [4] it was less than 10 µM.
Turning to `O=C(NCc1ccnc(N2CCC2)c1)O[C@@H]1[C@@H](O)CN[C@@H]1Cc1ccc(-c2ccc(C(F)(F)F)cc2)cc1` [V192071, (2R,3S,4S)-4-hydroxy-2-((4′-(trifluoromethyl)-[1,1′-biphenyl]-4-yl)methyl)pyrrolidin-3-yl ((2-(azetidin-1-yl)pyridin-4-yl)methyl)carbamate], the IC50 was 20 to 30 µM in assay [1], more than 30 µM in assay [2], 20 to 30 µM in assay [3] and 20 to 30 µM in assay [4].
